The record followed here is US5650412A, “HIV protease inhibitors useful for the treatment of AIDS” (Merck & Co., Inc., priority 1995, dated 1997).

In one test the target is T1, HIV protease (Human immunodeficiency virus type 1 group M subtype B, UniProt P04585).
T1 construct: made in house; host or cells: Escherichia coli
In words: Inhibition of Microbial Expressed HIV Protease (protease expressed in Escherichia coli, peptide substrate, HPLC of products). It counts as biochemical. The conditions noted are these: 50 mM Na acetate, pH 5.5, 30° C., 1 hour. Here is the method:
Assay for Inhibition of Microbial Expressed HIV Protease
Inhibition studies of the reaction of the protease expressed in Eschericia coli with a peptide substrate [Val-Ser-Gln-Asn-(betanaphyl)Ala-Pro-Ile-Val, 0.5 mg/mL at the time the reaction is initiated] were in 50 mM Na acetate, pH 5.5, at 30° C. for 1 hour. Various concentrations of inhibitor in […] DMSO were added to […] of the peptide solution in water. The reaction is initiated by the addition of […] of 0.33 nM protease (0.11 ng) in a solution of 0.133M Na acetate pH 5.5 and 0.1% bovine serum albumin. The reaction was quenched with […] of 5% phosphoric acid. Products of the reaction were separated by HPLC (VYDAC wide pore 5 cm C-18 reverse phase, acetonitrile gradient, 0.1% phosphoric acid). The extent of inhibition of the reaction was determined from the peak heights of the products.

The subject of another test is HIV-1. Put plainly: Cell spread assay: inhibition of the spread of HIV in MT-4 T-lymphoid cell culture. The format is cell-based. The conditions noted are these: Human immunodeficiency virus 1, 72 h; MT-4 T-lymphoid cells, HIV-1 wild-type, 3 days with inhibitor, p24 accumulation; read-out: CIC95 (inhibitor concentration which reduced the spread of infection by at least 95%). Here is the method: Inhibition of the spread of HIV in cell culture was measured according to Nunberg, J. H. et al., J. Virol. 65, 4887 (1991). In this assay, MT-4 T-lymphoid cells were infected with HIV-1 (wild-type, unless otherwise indicated) by using a predetermined inoculum, and cultures were incubated for 24 h. At this time, ≤1% of the cells were positive by indirect immunofluorescence. Cells were then extensively washed and distributed into 96-well culture dishes. Serial twofold dilutions of inhibitor were added to the wells, and cultures were continued for 3 additional days. At 4 days postinfection, 100% of the cells in control cultures were infected. HIV-1 p24 accumulation was directly correlated with virus spread. The cell culture inhibitory concentration was defined as the inhibitor concentration in nanomoles/liter which reduced the spread of infection by at least 95%, or CIC95. The CIC95 for compound A is 25 nM.
INHIBITION OF VIRUS SPREAD
A. Preparation of HIV-infected MT-4 cell Suspension […]
The concentration of HIV p24 antigen is measured by an enzyme immunoassay, described as follows. Aliquots of p24 antigen to be measured are added to microwells coated with a monoclonal antibody specific for HIV core antigen. […]

SMILES strings stand for the structures.

On to `COc1cc(CN2CCN(C[C@@H](O)[C@H](Cc3ccccc3)NC(=O)O[C@@H]3CCS(=O)(=O)[C@@H]3C(C)C)[C@H](C(=O)NC(C)(C)C)C2)cc2c1OCO2` [Compound A, N-tert-butyl-1-[2'(R)-hydroxy-4'-phenyl-3'(S)-[3"(R)-[1'",1'"-dioxo-2'"(R)-methylethyl]tetrahydrothienyloxycarbonylamino]butyl]-4-[(3'-methoxy-4',5'-methylenedioxyphenyl)methyl]piperazine-2(S)-carboxamide], for which the IC50 at HIV protease is about 1.2 nM. Also, the IC95 in the test on HIV-1 came to 25 nM.

For orientation: IC50 means the midpoint of a concentration-inhibition curve. Read a high IC50 as a need for much substance.
